≈ marks a conversion by molar mass, not a printed value.
Experiments:
[1] = CF patients, nebulisation twice a day (tobramycin 80 mg; Colistin 2 mega units); cited from earlier work
[2] = system: Ps. aeruginosa GH56 biofilms; assay: In vitro biofilm model (chemostat and Robbins device, viable counts on PVC disks)
Procedure: Each port allows insertion of a sampling stud that contains a polyvinyl chloride (PVC) disk that lies flush to the upper surface of the lumen. The continuous culture is pumped through the Robbins device and biofilms are formed on the surface of PVC disks exposed to the culture.
A 10-ml aliquot of an 18 hour culture of Pseudomonas aeruginosa, at approximately 10^8 cfu per ml, was used to inoculate the sterile growth media within the chemostat. The inocula was introduced into the chemostat through the sample port in the top plate. • ii. Following inoculation, the chemostat was operated as a batch culture for 4 h to allow establishment of the culture. • iii. Medium addition (½ strength nutrient broth, Oxoid) was commenced at the desired flow rate (1 ml per min) and the effluent pump was activated. The flow rate of the effluent pump was the same as the inflow pump. The effluent tubing bypassed the Robbins devices leading straight to the main waste reservoir. • iv. The continuous chemostat was run for a predetermined time until a steady state was attained (96-hours). At this stage, the tubes leading to the Robbins devices were positioned onto the multi-head pump, thus instigating culture flow through the Robbins devices. • v. […] The medium, effluent and culture volumes were recorded on the run sheet and the flow rates calculated accordingly. […]

[3] = system: Ps. aeruginosa; assay: Minimal inhibition concentration of tobramycin; format: cell-based; conditions: Pseudomonas aeruginosa

Compound | serum levels [1] | effect on Ps. aeruginosa sessile (biofilm) population ([2]; four applications at MIC (4 mg L^-1), over 24 h / 48 h) | effect on biofilm viability / sessile population ([2]; tobramycin at 10xMIC, four applications) | MIC [3]
NC[C@H]1O[C@H](O[C@H]2[C@H](O)[C@@H](O[C@H]3O[C@H](CO)[C@@H](O)[C@H](N)[C@H]3O)[C@H](N)C[C@@H]2N)[C@H](N)C[C@@H]1O [tobramycin] | unmeasurable | no significant effect | no significant effect | 4 µg/mL (≈ 8.56 µM)
Colistin | unmeasurable |  |  | 
